# Publication PMC9841525, “Chemical Blockage of the Mitochondrial Rhomboid Protease PARL by Novel Ketoamide Inhibitors Reveals Its Role in PINK1/Parkin-Dependent Mitophagy” (Journal of Medicinal Chemistry, 2022)
# Entries after “also recorded” stand apart in the source; their conditions may differ. *1 amine or outer side, *2 acyl side, *3 side chain or, on linkers, in order; H or OH if unused. Where a SMILES comes first, the peptide text is derived from it. [ ]: non-standard residue; d: D form. The star is where a group is joined. NH(4-phenylbutyl) = c1ccc(CCCCN*)cc1; X1 = C[C@H](N[*:1])C(=O)C(=O)[*:2]
# Key:
# [1] = system: PINK1; assay: PINK1 processing in HEK293 T-REx cells overexpressing PINK1, immunoblot; format: cell-based, human; settings: HEK293 T-REx cells overexpressing PINK1, 8 h
# Procedure: Inducible stable Flp-In HEK293 T-REx cells expressing PINK1 were described previously.[33] HEK293 T-REx PINK1 and HEK293T cells were grown in DMEM (Gibco) supplemented with 10% (v/v) fetal bovine serum (ThermoFisher), 1% (v/v) GlutaMAX (Gibco), 1% (v/v) sodium pyruvate (Gibco), 125 μg/mL hygromycin (Invitrogen), and 10 μg/mL blasticidin (Gibco) or DMEM supplemented with 10% (v/v) fetal bovine serum, respectively, at 37 °C in 5% (v/v) CO2. For microscopy, cells were seeded on poly-L-lysine (Sigma)-coated slides. Transient plasmid transfections were performed using 25 kDa linear polyethylenimine (Polysciences). Plasmid (100 ng) encoding HA-Parkin-IRES-GFP, mito-mCherry or Parkin-mEGFP, or 500 ng plasmid encoding PGAM5-FLAG were used per 6-well. Total transfected DNA was 2 μg/well. For siRNA transfection, 2 × 10^5 cells were seeded per 6-well and on the next day transfected with 20 nM siRNA-oligonucleotide using lipofectamine RNAiMAX (ThermoFisher). Cells were analyzed 27 h post-transfection or five days post-siRNA-transfection. HEK293 T-REx PINK1 cells were induced with 0.3 μg/mL doxycycline for 24 h before further processing. […] For quantification, ImageJ was used (http://rsb.info.nih.gov/ij/). Immunoblots shown are representative of at least three independent experiments and were evaluated using Excel and GraphPad Prism 9 (GraphPad Software, Inc.).
# [2] = system: HEK293T cells; assay: JC-1 mitochondrial membrane potential assay; format: cell-based, human; settings: 5 µM compound 5 or CCCP, at least three hours, compared to DMSO
# Procedure: Staining of cells for the determination of mitochondrial membrane potential was carried out with the JC-1 mitochondrial staining kit (Sigma-Aldrich) according to the kit’s instructions; stained cells were immediately taken to live cell imaging.
# For fixation, cells were incubated for 15 min with 4% formaldehyde (16% formaldehyde diluted in PBS, Thermo Scientific) and washed in PBS. The cover glasses were mounted with Fluoromount-G (Southern Biotech) on microscope slides. All microscopy was performed on an LSM 780 system (Carl Zeiss) with a Plan-APOCHROMAT 63× 1.4NA oil objective (Carl Zeiss) and pinhole settings of 1 AU with the Zeiss ZEN 2010 software. Image processing and analysis was performed using ImageJ (http://rsb.info.nih.gov/ij/). […] Parkin recruitment events to the mitochondria were counted by hand throughout each z-stack and cell. […] JC-1 images were handled as summed intensity z-stack projections, as well as subjected to flatfield correction and subtraction of background before measuring the fluorescence levels normalized to the number of cell nuclei. The fluorescence intensity ratio between the red and green signal was calculated and compared to DMSO as a ratio of 1. Data were evaluated using Excel and GraphPad Prism 6.
structure (smiles),measurement,setting,value
CC(=O)N[C@@H](C)C(=O)N[C@H](C(=O)N[C@@H](Cc1ccccc1)C(=O)N[C@@H](CC(C)C)C(=O)N[C@@H](C)C(=O)C(=O)NCCCCc1ccccc1)C(C)C [compound 5] (Ac-AVFL[X1]-{NH(4-phenylbutyl)}),Effect on cleavage and stabilization of overexpressed PINK1,[1],dose-dependent stabilization of PINK1–66
same,Effect on cleavage and stabilization of overexpressed PINK1,[1]; listed as Compound 5,inhibits the PARL-cleavage of overexpressed PINK1 in a dose-dependent manner
same,Effect on mitochondrial membrane potential (JC-1 aggregate to monomer ratio),[2],does not depolarize; also recorded: does not significantly alter the membrane potential
